The source of these data is PMC7391683, “Two glyoxylate reductase isoforms are functionally redundant but required under high photorespiration conditions in rice” (BMC Plant Biology, 2020).

Series [1] deals with T1, OsGR2 (Oryza sativa, UniProt Q656T5).
T1 construct: gene Os01g0574600; subunit about 37 kDa on SDS-PAGE
T1 sequence (Q656T5 45-341): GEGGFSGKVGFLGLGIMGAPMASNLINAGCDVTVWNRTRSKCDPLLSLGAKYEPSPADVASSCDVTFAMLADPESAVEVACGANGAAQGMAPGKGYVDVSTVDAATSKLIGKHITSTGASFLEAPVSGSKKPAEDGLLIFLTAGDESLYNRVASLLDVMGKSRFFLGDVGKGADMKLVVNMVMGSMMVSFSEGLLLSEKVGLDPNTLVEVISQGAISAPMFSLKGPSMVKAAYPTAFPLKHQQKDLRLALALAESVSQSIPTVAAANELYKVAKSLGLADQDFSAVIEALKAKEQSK
Nature of the series: NADH oxidation, Lineweaver-Burk. Type of series: biochemical. The note with it: glyoxylate fixed, pH 7.4, 30 °C. The source says:
NADH oxidation, Lineweaver-Burk on OsGR2

The target in series [2] is T1, OsGR2. Kind of series: NADPH oxidation, Lineweaver-Burk. Type of series: biochemical. The note with it: pH 7.4, 30 °C. The source says: NADPH oxidation, Lineweaver-Burk on OsGR2
Series [3] has as its target T2, OsGR1 (Oryza sativa, UniProt Q84VC8).
T2 construct: full-length, 6xHis-tag (pCold vector), E. coli Rosetta (DE3), Ni-IDA purified; subunit about 30 kDa on SDS-PAGE
T2 sequence (Q84VC8 1-293): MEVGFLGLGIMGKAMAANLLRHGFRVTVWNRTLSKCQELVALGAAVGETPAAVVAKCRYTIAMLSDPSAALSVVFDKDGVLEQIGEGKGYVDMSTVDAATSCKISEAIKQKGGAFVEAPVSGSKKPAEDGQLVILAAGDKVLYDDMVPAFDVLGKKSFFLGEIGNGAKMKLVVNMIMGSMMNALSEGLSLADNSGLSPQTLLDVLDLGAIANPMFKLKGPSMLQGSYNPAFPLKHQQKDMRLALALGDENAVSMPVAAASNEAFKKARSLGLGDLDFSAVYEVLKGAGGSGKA
Kind of series: NAD(P)H oxidation; slopes of reciprocal plots against oxalate. In kind it is biochemical. The note with it: read-out: Ki(oxalate) (mM) / Glyoxylate as substrate NADPH as cofactor. The source says: NAD(P)H oxidation; slopes of reciprocal plots against oxalate on OsGR1

Substrate in series [4]: NC(=O)C1=CN([C@@H]2O[C@H](COP(=O)(O)OP(=O)(O)OC[C@H]3O[C@@H](n4cnc5c(N)ncnc54)[C@H](O)[C@@H]3O)[C@@H](O)[C@H]2O)C=CC1
Nature of the series: NADH oxidation, Lineweaver-Burk. In kind it is biochemical, Oryza sativa. The note with it: glyoxylate fixed, pH 7.4, 30 °C, varied: cofactor. From the text: NADH oxidation, Lineweaver-Burk on OsGR1

Substrate in series [5]: NC(=O)C1=CN([C@@H]2O[C@H](COP(=O)(O)OP(=O)(O)OC[C@H]3O[C@@H](n4cnc5c(N)ncnc54)[C@H](OP(=O)(O)O)[C@@H]3O)[C@@H](O)[C@H]2O)C=CC1
Kind of series: NADPH oxidation, Lineweaver-Burk. In kind it is biochemical, Oryza sativa. The note with it: glyoxylate fixed, pH 7.4, 30 °C, varied: cofactor. From the text:
(§1) NADPH oxidation, Lineweaver-Burk on OsGR1

Substrate in series [6]: O=CC(=O)O
Nature of the series: NADPH oxidation, Lineweaver-Burk. Type of series: biochemical, Oryza sativa. The note with it: NADPH fixed, pH 7.4, 30 °C.
From the text: as §1

In the case of `NC(=O)C1=CN([C@@H]2O[C@H](COP(=O)(O)OP(=O)(O)OC[C@H]3O[C@@H](n4cnc5c(N)ncnc54)[C@H](O)[C@@H]3O)[C@@H](O)[C@H]2O)C=CC1` [NADH], in series [1], the Km worked out at 404 ± 66.5 µM.
As to `NC(=O)C1=CN([C@@H]2O[C@H](COP(=O)(O)OP(=O)(O)OC[C@H]3O[C@@H](n4cnc5c(N)ncnc54)[C@H](OP(=O)(O)O)[C@@H]3O)[C@@H](O)[C@H]2O)C=CC1` [NADPH], the Km in series [2] (glyoxylate fixed) turned out to be 53 ± 4.6 µM.
Take `O=CC(=O)O` [glyoxylate]: in series [2] (NADPH fixed), the Michaelis-Menten constant (Km) came to 72.1 ± 5.3 µM.
In the case of `O=C(O)C(=O)O` [oxalate], the Ki in series [3] was found to be 21.2 ± 4.3 mM.

B1: OsGR1 (Oryza sativa Japonica Group) (protein)
chain: T2 sequence (Q84VC8 1-293)
notes: full-length, 6xHis-tag (pCold vector), E. coli Rosetta (DE3), Ni-IDA purified; subunit about 30 kDa on SDS-PAGE
For B1, the figures for the Km in series [4], in series [5] and in series [6] were 420.2 ± 50.5 µM, 17.6 ± 3.1 µM and 30.4 ± 3.5 µM, respectively.
